The values that follow come from ChEMBL document CHEMBL1158646, “Potential Antitumor Agents: A Cytotoxic Cardenolide From Coronilla varia” (1979).

Assay [1] can be described thus: Cytotoxicity against human 9KB cells. Type of assay: functional. To be noted: read-out: ED50 (the source's name).
The subject of assay [2] is P388. Put plainly: Antitumor activity against mouse P388 cells in mouse assessed as median survival time at 8 mg/kg relative to control. Type of assay: functional, organism-based. Also noted: dose 8 mg/kg.
For assay [3], the system named is P388. Kind of assay: Antitumor activity against mouse P388 cells in mouse assessed as median survival time at 1.25 mg/kg relative to control. Type of assay: functional.
The subject of the next assay is L1210. Kind of assay: Cytotoxicity against mouse L1210 cells. Type of assay: functional, cell-based.
Another assay deals with Lewis lung carcinoma. Put plainly: Cytotoxicity against mouse LLC cells. Type of assay: functional, cell-based.
The test system of the next assay is B16. Put plainly: Cytotoxicity against mouse B16 cells. Type of assay: functional, cell-based.

One may read the T/C as the ratio of treated to control.

SMILES strings stand for the structures. Values after ≈ are worked out from the molar mass of the structure shown. Active and inactive are the calls of the source. The rule behind the calls is not given here.

Take `C[C@]12CC[C@H]3[C@@H](CCC4=C[C@@H](O[C@@H]5OC[C@@H](O)[C@H](O)[C@H]5O)CC[C@@]43C=O)[C@@]1(O)CC[C@@H]2C1=CC(=O)OC1` [DEGLUCOHYRCANOSIDE]: in assay [1], the EC50 was 0.02 µg/mL (≈ 0.0386 µM). Further, the result in the assay on P388 [2] was inactive.
For the compound `C[C@]12CC[C@H]3[C@@H](CCC4=C[C@@H](O[C@@H]5OC[C@@H](O[C@@H]6O[C@H](CO)[C@@H](O)[C@H](O)[C@H]6O)[C@H](O)[C@H]5O)CC[C@@]43C=O)[C@@]1(O)CC[C@@H]2C1=CC(=O)OC1` [HYRCANOSIDE], the T/C with P388 [3] is reported as 133%. In addition, the result in the assay on L1210, in the assay on Lewis lung carcinoma and in the assay with B16 was inactive. The EC50 in assay [1] was 0.1 µg/mL (≈ 0.147 µM).
